Results published in patent publication US20090269352A1, “ANTITUMOR AGENT COMPRISING SULFONAMIDE-CONTAINING HETEROCYCLIC COMPOUND COMBINED WITH AN ANGIOGENESIS INHIBITOR” (priority 2002, published 2009).

Tests used:
[1] = test system: KP-1 or Colo320DM cells; assay: Mouse model with grown cancer (FIG. 1, tumor not given); assay type: in vivo, mice (KSN Slc, female); conditions: oral, 2 weeks
Method: (§1) 1×10^7 KP-1 or Colo320DM cells/0.1 ml PBS/mouse were inoculated subcutaneously to mice (KSN Slc, female). From 1 to 2 weeks after the transplantation, 0.5% aqueous methyl cellulose solution, E7820 (0.5% methyl cellulose suspension: 50, 100, 200 mg/kg: twice a day), or ZD6474 (0.5% methyl cellulose suspension: 50, 100 mg/kg: once a day), or both of E7820 (50, 100, 200 mg/kg: twice a day) and ZD6474 (50, 100 mg/kg: once a day), were orally administered for 2 weeks. The transplanted tumor volume was measured twice every week, and the relative tumor volume was calculated according to the following equation: Relative tumor volume=tumor volume on the day after last administration/tumor volume at first administration.
(§2) The antitumor effect was expressed in T/C % (T/C %=relative tumor volume in the chemical administration group/relative tumor volume in the control group).

[2] = test system: KP-1 cells; assay: Mouse model with grown cancer, KP-1; assay type: in vivo, mice (KSN Slc, female); conditions: KP-1 tumor; oral, 2 weeks; relative tumor volume treated/control
Method: as §1, §2

[3] = test system: Colo320DM cells; assay: Mouse model with grown cancer, Colo320DM; assay type: in vivo, mice (KSN Slc, female); conditions: Colo320DM tumor; oral, 2 weeks; relative tumor volume treated/control
Method: as §1, §2

[4] = test system: Human umbilical vein endothelial cells; assay: Proliferation of VEGF-induced endothelial cells, combination with E7820; assay type: cell-based; conditions: inhibition rate (fa) 0.5, 20 ng/ml VEGF; for Combination index (CI): formula of Chou et al.
Method: (§3) On the next day, ½ serial dilutions of VEGF receptor kinase inhibitors (ZD6474, ZD4190, SU5416, SU6668) or VEGF antibody as VEGF inhibitors, ½ serial dilutions of VEGF antibody, ½ serial dilutions of E7820, and dilutions containing two of the above substances were prepared respectively, and each dilution was added in a volume of 100 μl/well to each well containing the cultured human umbilical vein endothelial cells, and the cells were further cultured.
(§4) After 3 days, 5 ml cell counting kit solution (Wako Pure Chemical Industries, Ltd.) were diluted with PBS to give 40 ml dilution, and 50 μl of this dilution were added to each well, then incubated at 37° C. for 3 to 4 hours and measured for its absorbance at 415 nm by a plate reader (Corona Denki Co., Ltd.).

[5] = test system: Human umbilical vein endothelial cells (HUVEC); assay: Tube formation of endothelial cell, VEGF inhibitor wells, combination with E7820
Method: (§5) 400 μl of type I collagen gel (Nitta Gelatin) were added onto each well of a 24-well plate (FALCON) and gelled at 37° C. in a CO2 incubator for 40 min. A serum-free medium (human endothelial-SFM basal growth medium; GIBCO BRL) containing 20 ng/ml EGF (GIBCO BRL) was prepared, and 200 μl of this medium solution were added onto each well containing the type I collagen gel. Human umbilical vein endothelial cells (HUVEC) were suspended in a serum-free medium (human endothelial-SFM basal growth medium; GIBCO BRL) to prepare a cell suspension at a density of 5×10^5 cells/ml. 200 μl of this suspension were put into each well containing the type I collagen gel and serum-free medium, and cultured overnight.
(§6) After incubation, […] of 3.3 mg/ml MTT (SIGMA) were added into each well and reacted at 37° C. in a CO2 incubator for 3 hours to stain the cells. Under a microscope (SZX12 manufactured by OLYMPUS), an image of a tube formed by HUVEC was incorporated (M-3204C manufactured by OLYMPUS). The tube length in the incorporated image was measured by image analysis software Mac SCOPE 2.56 (manufactured by MITANI) to quantify the tube formation of HUVEC.

[6] = test system: Human umbilical vein endothelial cells; assay: Proliferation of FGF-induced endothelial cells, combination with E7820; assay type: cell-based; conditions: inhibition rate (fa) 0.5, 20 ng/ml bFGF; for Combination index (CI): formula of Chou et al.
Method: as §3, with “FGF” for “VEGF”, “(PD166866, PD173074)” for “(ZD6474, ZD4190, SU5416, SU6668)”, “inhibitors,” for “inhibitors, ½ serial dilutions of VEGF antibody,”
as §4

[7] = test system: Human umbilical vein endothelial cells (HUVEC); assay: Tube formation of endothelial cell, FGF inhibitor wells, combination with E7820; assay type: cell-based; conditions: inhibition rate (fa) 0.5, 10 ng/ml EGF and 20 ng/ml bFGF
Method: as §5, §6

SMILES: Cc1ccc(NS(=O)(=O)c2cccc(C#N)c2)c2[nH]cc(C#N)c12 [E7820]
- Tumor growth / antitumor effect (FIG. 1) [1]: tumor growth was inhibited
- T/C % [2]: 83%
- T/C % [3]: 60%

SMILES: COc1cc2c(Nc3ccc(Br)cc3F)ncnc2cc1OCCn1ccnn1 [ZD4190]
- Combination effect [4]: Synergistic
- Combination index (CI) [4]: 0.3

SMILES: COc1cc2c(Nc3ccc(Br)cc3F)ncnc2cc1OCC1CCN(C)CC1 [ZD6474]
- Tumor growth / antitumor effect (FIG. 1) [1]: tumor growth was inhibited
- T/C % [2]: 47%
- T/C % [3]: 56%
- Combination effect [4]: Synergistic
- Combination index (CI) [4]: 0.4
- Combination effect ([5]; inhibition rate (fa) 0.5, 10 ng/ml EGF and 20 ng/ml VEGF): Synergistic
- Combination index (CI) ([5]; inhibition rate (fa) 0.5, tube length, 10 ng/ml EGF and 20 ng/ml VEGF): 0.4

SMILES: CCN(CC)CCCCNc1ncc2cc(-c3cc(OC)cc(OC)c3)c(NC(=O)NC(C)(C)C)nc2n1 [PD173074]
- Combination effect [6]: Synergistic
- Combination index (CI) [6]: 0.4

SMILES: COc1cc(OC)cc(-c2cc3cnc(N)nc3nc2NC(=O)NC(C)(C)C)c1 [PD166866]
- Combination effect [7]: Synergistic
- Combination effect [6]: Synergistic
- Combination index (CI) [6]: 0.5

SMILES: Cc1cc(C)c(/C=C2\C(=O)Nc3ccccc32)[nH]1 [SU5416]
- Combination effect [4]: Synergistic
- Combination index (CI) [4]: 0.4

SMILES: Cc1[nH]c(/C=C2\C(=O)Nc3ccccc32)c(C)c1CCC(=O)O [SU6668]
- Combination effect [4]: Synergistic
- Combination index (CI) [4]: 0.5
